The source of these data is PMC10341698, “Identification of Anti-Influenza A Compounds Inhibiting the Viral Non-Structural Protein 1 (NS1) Using a Type I Interferon-Driven Screening Strategy” (International Journal of Molecular Sciences, 2023).

By EC50 is commonly meant the concentration at which the effect is half-maximal. What is called IC50 is the concentration that gives 50% inhibition. Higher therefore signals weaker potency.

Molecules are shown by their SMILES.

In one series the test system is NS1. Particulars: cited from earlier work.
Series [1] concerns A(H1N1)pdm09 NS1. As to the kind of experiment: IFN-β promoter luciferase screening of the diverse library (glow type). The series is classed as cell-based, A(H1N1)pdm09 influenza virus. Particulars: HEK 293 cells; for increase of IFN-β promoter stimulation: 50 μM, 42 h treatment, glow luciferase, single experiment.
Series [2] deals with A(H1N1)pdm09 NS1. Description: Confirmation in the IFN-β luciferase system (flash type). The series is classed as cell-based, A(H1N1)pdm09 influenza virus. Particulars: HEK 293 cells, 50 μM.
Series [3] relates to IFN-β promoter luciferase reporter. The series is classed as cell-based, human.
Another series relates to IFN-β mRNA. As to the kind of experiment: qRT-PCR of IFN-β mRNA in infected A549 cells. The series is classed as cell-based, human. Particulars: A/PR/8/34(H1N1)-infected A549 cells, 24 h p.i., normalized with GAPDH and HAU. On the technique in general: In qPCR the cycle at which signal appears reflects the starting amount.
In a further series the test system is RNase L mRNA. As to the kind of experiment: qRT-PCR of RNase L mRNA in infected A549 cells. The series is classed as cell-based, human. Particulars: A/PR/8/34(H1N1)-infected A549 cells, 24 h p.i., normalized with GAPDH and HAU.
The next series concerns 2′5′ OAS mRNA. As to the kind of experiment: qRT-PCR of OAS mRNA in infected A549 cells. Particulars: A/PR/8/34(H1N1)-infected A549 cells, 24 h p.i., normalized with GAPDH and HAU. The series is classed as cell-based, human.
Another series concerns PKR mRNA. As to the kind of experiment: qRT-PCR of PKR mRNA in infected A549 cells. The series is classed as cell-based, human. Particulars: A/PR/8/34(H1N1)-infected A549 cells, 24 h p.i., normalized with GAPDH and HAU.
Series [4] relates to influenza virus A/PR/8/34(H1N1). Particulars: A549 cells; for reduction of viral replication: 50 µM, 3 h before infection, MOI 0.1, 24 h p.i., HAU.
The next series relates to A549 cells. Particulars: human, 48 h.
Another series can be described thus: in vitro. Particulars: human.
Series [5] has as its system influenza virus A/PR/8/34(H1N1). As to the kind of experiment: microbe, parasite or virus in culture. Particulars: unidentified influenza virus, A549, 24 h.

Protocol for in vitro: Cytotoxic concentration to cause death to 50% of viable cells (CC50) was calculated by neutral red uptake assay (NRU) assay [64]. In brief, 1 × 10^4 A549 cells were seeded in 96-well plates and exposed to different concentrations of cpds 157, 164 (25, 50, 100, 200, and 400 μM) or equivalent volumes of DMSO as a control for 48 h. At the end of the exposure time, cells were washed with phosphate-buffered saline (PBS) before being incubated for 3 h in a medium supplemented with neutral red (50 μg/mL). The medium was washed off rapidly with PBS, and cells were incubated for a further 15′ at R.T. in a mixture of 1% acetic acid and 50% ethanol to extract the dye. Absorbance was then measured at 540 nm using a micro-plate reader (Biorad). Neutral red powder was purchased from Sigma-Aldrich. The percentage of cell death for each compound concentration, compared to the corresponding DMSO amount in untreated controls (y-axis), was plotted against increasing cpd concentrations (x-axis). Data were transformed in log scale [x = log(x)], and a linear regression analysis was used to calculate the CC50 concentration.

For `Nc1ccccc1C(=O)NCCCc1ccccc1` [A22], in the series on NS1, the EC50 was about 0.05 µM.
Take `O=C(CSc1nnnn1-c1ccccc1)NCc1ccccc1` [Compound 164]: the “increase of IFN-β promoter stimulation” value in the series with A(H1N1)pdm09 NS1 [1] is given as “at least 50%”. Further, the “restoration of the luciferase signal” value in the series on A(H1N1)pdm09 NS1 [2] is “significant restoration of the luciferase signal”. Besides, the “non-specific activity on the reporter, alone or with IFN inducer, without NS1” value in series [3] is recorded as “without showing non-specific activities”. In the series with IFN-β mRNA, the “fold increase in IFN-β mRNA accumulation” value was found to be 3.2 fold. In addition, the “fold increase for RNase L” value with RNase L mRNA is reported as 2.3 fold. Further, the “fold increase for 2′5′ OAS” value in the series with 2′5′ OAS mRNA is given as 1.7 fold. Moreover, in the series on PKR mRNA, the “fold increase for PKR” value is given as 1.7 fold. Moreover, in series [4], the “therapeutic index (CC50/IC50)” value is on record as 3.6 and the “reduction of viral replication” value was 60%. In addition, the CC50 with A549 cells is 169 µM. The CC50 at 48 h in the series “in vitro” was over 150 µM. Moreover, in series [5], 46.4 µM corresponded to half-maximal inhibition (IC50).
For `O=C(N/N=C/c1ccc2c(c1)CCC2)c1ccccc1O` [NSC125044], the EC50 in the series on NS1 was 8 µM.
Regarding `CCc1ccc(NC(=O)COC(=O)c2ccc3ccccc3n2)cc1` [Compound 157], the “increase of IFN-β promoter stimulation” value in the series on A(H1N1)pdm09 NS1 [1] was “at least 50%”. In addition, the “restoration of the luciferase signal” value in the series on A(H1N1)pdm09 NS1 [2] is on record as “significant restoration of the luciferase signal”. For the same compound, the “non-specific activity on the reporter, alone or with IFN inducer, without NS1” value in [3] is reported as “without showing non-specific activities”. In addition, the “fold increase in IFN-β mRNA accumulation” value in the series on IFN-β mRNA is recorded as 2.7 fold. Further, the “fold increase for RNase L” value in the series with RNase L mRNA was 2.5 fold. In the series on 2′5′ OAS mRNA, the “fold increase for 2′5′ OAS” value is reported as 2.3 fold. For the same compound, the “fold increase for PKR” value in the series on PKR mRNA worked out at 4.5 fold. Besides, in series [4], the “therapeutic index (CC50/IC50)” value was over 7.8 and the “reduction of viral replication” value is 50%. The CC50 at 48 h in the series “in vitro” was over 400 µM. In addition, in series [5], half-maximal inhibition (IC50) was put at 51.6 µM.
Consider `O=C(NCCCc1ccccc1)c1ccccc1O` [JJ3297, reference compound], for which the “IFN-β promoter assay with the reference NS1 inhibitor” value in the series on A(H1N1)pdm09 NS1 [1] (5 μM) was “specificity of the IFN-β promoter assay was also confirmed”. In addition, in the series with NS1, the EC50 was 0.8 µM.
